{"source": "ChEMBL document CHEMBL4321785", "about": "“Challenges and Opportunities for Therapeutics Targeting the Voltage-Gated Sodium Channel Isoform NaV1.7” (J Med Chem, 2019)", "key": {"[1]": {"molecular_target": "Sodium channel protein type 10 subunit alpha (Mus musculus, UniProt Q6QIY3)", "assay": "Binding affinity to mouse Nav1.8 […] by radioligand binding assay"}, "[2]": {"molecular_target": "T1, Sodium channel protein type 1 subunit alpha (Homo sapiens, UniProt P35498)", "assay": "Binding affinity to human recombinant Nav1.1 by radioligand binding assay"}, "[3]": {"molecular_target": "Sodium channel protein type 3 subunit alpha (Homo sapiens, UniProt Q9NY46)", "assay": "Binding affinity to human recombinant Nav1.3 by radioligand binding assay"}, "[4]": {"assay": "Ratio of unbound plasma concentration in mouse model of inherited erythromelalgia to Kd for binding affinity to recombinant human Nav1.7 by radioligand binding assay", "assay_type": "ADME", "conditions": "in vivo"}, "[5]": {"assay": "Plasma concentration in mouse model of pain at 30 mg/kg, po during hot plate test", "assay_type": "ADME, organism-based", "conditions": "in vivo"}, "[6]": {"species": "Homo sapiens", "assay": "Selectivity ratio of Kd for binding affinity to human recombinant Nav1.2 by radioligand binding assay to Kd for binding affinity to human recombinant Nav1.7 by radioligand binding assay"}, "[7]": {"molecular_target": "T2, Sodium channel protein type 4 subunit alpha (Homo sapiens, UniProt P35499)", "assay": "Binding affinity to human recombinant Nav1.4 by radioligand binding assay"}, "[8]": {"molecular_target": "T3, Sodium channel protein type 8 subunit alpha (Homo sapiens, UniProt Q9UQD0)", "T3 sequence (Q9UQD0 whole entry)": "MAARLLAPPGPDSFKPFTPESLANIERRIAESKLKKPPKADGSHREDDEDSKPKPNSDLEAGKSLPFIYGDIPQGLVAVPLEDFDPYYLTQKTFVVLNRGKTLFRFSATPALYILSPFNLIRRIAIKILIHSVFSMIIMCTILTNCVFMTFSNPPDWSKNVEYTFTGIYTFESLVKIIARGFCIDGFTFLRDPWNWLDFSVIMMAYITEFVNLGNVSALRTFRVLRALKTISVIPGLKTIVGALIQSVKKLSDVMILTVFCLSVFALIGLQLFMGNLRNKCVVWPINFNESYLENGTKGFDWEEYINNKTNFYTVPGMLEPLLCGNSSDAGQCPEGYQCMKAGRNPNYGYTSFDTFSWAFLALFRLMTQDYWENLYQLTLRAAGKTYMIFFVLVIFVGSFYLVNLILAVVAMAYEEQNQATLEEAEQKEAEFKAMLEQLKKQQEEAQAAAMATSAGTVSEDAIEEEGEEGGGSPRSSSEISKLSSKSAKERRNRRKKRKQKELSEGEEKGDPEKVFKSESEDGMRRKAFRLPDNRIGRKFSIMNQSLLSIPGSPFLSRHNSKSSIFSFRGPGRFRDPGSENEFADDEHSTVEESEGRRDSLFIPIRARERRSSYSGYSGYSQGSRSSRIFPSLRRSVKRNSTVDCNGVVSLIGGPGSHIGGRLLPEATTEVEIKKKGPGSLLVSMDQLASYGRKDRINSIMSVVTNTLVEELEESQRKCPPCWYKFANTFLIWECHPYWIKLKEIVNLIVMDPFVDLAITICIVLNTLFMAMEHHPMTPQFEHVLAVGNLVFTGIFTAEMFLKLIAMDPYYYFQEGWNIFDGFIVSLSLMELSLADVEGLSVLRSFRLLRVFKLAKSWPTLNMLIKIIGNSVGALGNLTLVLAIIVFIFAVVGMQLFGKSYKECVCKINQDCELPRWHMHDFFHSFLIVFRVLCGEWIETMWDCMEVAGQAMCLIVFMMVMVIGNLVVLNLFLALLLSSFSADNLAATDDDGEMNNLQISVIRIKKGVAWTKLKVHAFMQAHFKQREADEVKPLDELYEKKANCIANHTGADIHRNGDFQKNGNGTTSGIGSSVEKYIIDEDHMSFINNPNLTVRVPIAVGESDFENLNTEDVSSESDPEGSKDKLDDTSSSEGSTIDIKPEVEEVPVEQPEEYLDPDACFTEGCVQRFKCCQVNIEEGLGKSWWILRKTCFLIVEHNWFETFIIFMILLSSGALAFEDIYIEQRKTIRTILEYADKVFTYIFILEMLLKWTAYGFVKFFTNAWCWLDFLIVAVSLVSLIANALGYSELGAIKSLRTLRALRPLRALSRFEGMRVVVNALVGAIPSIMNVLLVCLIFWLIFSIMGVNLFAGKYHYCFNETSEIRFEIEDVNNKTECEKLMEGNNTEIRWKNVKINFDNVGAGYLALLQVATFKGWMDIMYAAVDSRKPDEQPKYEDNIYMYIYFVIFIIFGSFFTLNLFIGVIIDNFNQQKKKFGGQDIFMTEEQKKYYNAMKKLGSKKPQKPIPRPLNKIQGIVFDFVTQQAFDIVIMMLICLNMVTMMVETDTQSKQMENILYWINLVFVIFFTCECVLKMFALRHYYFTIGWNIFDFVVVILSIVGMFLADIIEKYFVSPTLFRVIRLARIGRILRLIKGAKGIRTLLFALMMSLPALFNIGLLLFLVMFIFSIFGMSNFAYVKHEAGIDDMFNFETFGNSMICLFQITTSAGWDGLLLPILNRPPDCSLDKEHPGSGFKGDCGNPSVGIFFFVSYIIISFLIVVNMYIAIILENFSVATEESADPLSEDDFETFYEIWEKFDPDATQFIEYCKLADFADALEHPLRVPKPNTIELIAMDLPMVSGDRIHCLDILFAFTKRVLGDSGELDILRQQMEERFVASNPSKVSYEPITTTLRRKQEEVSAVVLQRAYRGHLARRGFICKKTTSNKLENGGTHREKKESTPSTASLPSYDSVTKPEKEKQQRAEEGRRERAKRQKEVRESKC", "assay": "Binding affinity to human recombinant Nav1.6 by radioligand binding assay"}, "[9]": {"assay": "Ratio of unbound plasma concentration in mouse model of CFA-induced cold allodynia to Kd for binding affinity to mouse Nav1.7 by radioligand binding assay", "assay_type": "ADME", "conditions": "in vivo"}, "[10]": {"assay": "Ratio of unbound plasma concentration in mouse model of STZ-induced pain measured to Kd for binding affinity to mouse Nav1.7 by radioligand binding assay", "assay_type": "ADME", "conditions": "in vivo"}, "[11]": {"species": "Homo sapiens", "assay": "Selectivity ratio of Kd for binding affinity to human recombinant Nav1.4 by radioligand binding assay to Kd for binding affinity to human recombinant Nav1.7 by radioligand binding assay"}, "[12]": {"species": "Homo sapiens", "assay": "Selectivity ratio of Kd for binding affinity to human recombinant Nav1.6 by radioligand binding assay to Kd for binding affinity to human recombinant Nav1.7 by radioligand binding assay"}, "[13]": {"assay": "Ratio of plasma concentration in mouse model of CFA-induced pain at 30 mg/kg, po during Hargreaves test to IC50 for inhibition of mouse Nav1.7 expressed in HEK293 cells by electrophysiology assay", "assay_type": "organism-based", "conditions": "in vivo"}, "[14]": {"assay": "Ratio of plasma concentration in mouse model of pain at 30 mg/kg, po during tail immersion test to IC50 for inhibition of mouse Nav1.7 expressed in HEK293 cells by electrophysiology assay", "assay_type": "organism-based", "conditions": "in vivo"}, "[15]": {"assay": "Plasma concentration in mouse model of CFA-induced pain at 30 mg/kg, po during Hargreaves test", "assay_type": "ADME, organism-based", "conditions": "in vivo"}, "[16]": {"assay": "Ratio of plasma concentration in mouse model of pain at 30 mg/kg, po during hot plate test to IC50 for inhibition of mouse Nav1.7 expressed in HEK293 cells by electrophysiology assay", "assay_type": "organism-based", "conditions": "in vivo"}, "[17]": {"species": "Homo sapiens", "assay": "Selectivity ratio of Kd for binding affinity to human recombinant Nav1.1 by radioligand binding assay to Kd for binding affinity to human recombinant Nav1.7 by radioligand binding assay"}, "[18]": {"assay": "Unbound fraction in mouse plasma", "assay_type": "ADME, cell-free"}, "[19]": {"molecular_target": "Sodium channel protein type 9 subunit alpha (Mus musculus, UniProt Q62205)", "assay": "Binding affinity to mouse Nav1.7 by radioligand binding assay"}, "[20]": {"assay": "Plasma concentration in mouse model of pain at 30 mg/kg, po during tail immersion test", "assay_type": "ADME, organism-based", "conditions": "in vivo"}, "[21]": {"molecular_target": "T4, Sodium channel protein type 5 subunit alpha (Homo sapiens, UniProt Q14524)", "assay": "Binding affinity to human recombinant Nav1.5 by radioligand binding assay"}, "[22]": {"molecular_target": "T5, Sodium channel protein type 2 subunit alpha (Homo sapiens, UniProt Q99250)", "T5 sequence (Q99250 whole entry)": "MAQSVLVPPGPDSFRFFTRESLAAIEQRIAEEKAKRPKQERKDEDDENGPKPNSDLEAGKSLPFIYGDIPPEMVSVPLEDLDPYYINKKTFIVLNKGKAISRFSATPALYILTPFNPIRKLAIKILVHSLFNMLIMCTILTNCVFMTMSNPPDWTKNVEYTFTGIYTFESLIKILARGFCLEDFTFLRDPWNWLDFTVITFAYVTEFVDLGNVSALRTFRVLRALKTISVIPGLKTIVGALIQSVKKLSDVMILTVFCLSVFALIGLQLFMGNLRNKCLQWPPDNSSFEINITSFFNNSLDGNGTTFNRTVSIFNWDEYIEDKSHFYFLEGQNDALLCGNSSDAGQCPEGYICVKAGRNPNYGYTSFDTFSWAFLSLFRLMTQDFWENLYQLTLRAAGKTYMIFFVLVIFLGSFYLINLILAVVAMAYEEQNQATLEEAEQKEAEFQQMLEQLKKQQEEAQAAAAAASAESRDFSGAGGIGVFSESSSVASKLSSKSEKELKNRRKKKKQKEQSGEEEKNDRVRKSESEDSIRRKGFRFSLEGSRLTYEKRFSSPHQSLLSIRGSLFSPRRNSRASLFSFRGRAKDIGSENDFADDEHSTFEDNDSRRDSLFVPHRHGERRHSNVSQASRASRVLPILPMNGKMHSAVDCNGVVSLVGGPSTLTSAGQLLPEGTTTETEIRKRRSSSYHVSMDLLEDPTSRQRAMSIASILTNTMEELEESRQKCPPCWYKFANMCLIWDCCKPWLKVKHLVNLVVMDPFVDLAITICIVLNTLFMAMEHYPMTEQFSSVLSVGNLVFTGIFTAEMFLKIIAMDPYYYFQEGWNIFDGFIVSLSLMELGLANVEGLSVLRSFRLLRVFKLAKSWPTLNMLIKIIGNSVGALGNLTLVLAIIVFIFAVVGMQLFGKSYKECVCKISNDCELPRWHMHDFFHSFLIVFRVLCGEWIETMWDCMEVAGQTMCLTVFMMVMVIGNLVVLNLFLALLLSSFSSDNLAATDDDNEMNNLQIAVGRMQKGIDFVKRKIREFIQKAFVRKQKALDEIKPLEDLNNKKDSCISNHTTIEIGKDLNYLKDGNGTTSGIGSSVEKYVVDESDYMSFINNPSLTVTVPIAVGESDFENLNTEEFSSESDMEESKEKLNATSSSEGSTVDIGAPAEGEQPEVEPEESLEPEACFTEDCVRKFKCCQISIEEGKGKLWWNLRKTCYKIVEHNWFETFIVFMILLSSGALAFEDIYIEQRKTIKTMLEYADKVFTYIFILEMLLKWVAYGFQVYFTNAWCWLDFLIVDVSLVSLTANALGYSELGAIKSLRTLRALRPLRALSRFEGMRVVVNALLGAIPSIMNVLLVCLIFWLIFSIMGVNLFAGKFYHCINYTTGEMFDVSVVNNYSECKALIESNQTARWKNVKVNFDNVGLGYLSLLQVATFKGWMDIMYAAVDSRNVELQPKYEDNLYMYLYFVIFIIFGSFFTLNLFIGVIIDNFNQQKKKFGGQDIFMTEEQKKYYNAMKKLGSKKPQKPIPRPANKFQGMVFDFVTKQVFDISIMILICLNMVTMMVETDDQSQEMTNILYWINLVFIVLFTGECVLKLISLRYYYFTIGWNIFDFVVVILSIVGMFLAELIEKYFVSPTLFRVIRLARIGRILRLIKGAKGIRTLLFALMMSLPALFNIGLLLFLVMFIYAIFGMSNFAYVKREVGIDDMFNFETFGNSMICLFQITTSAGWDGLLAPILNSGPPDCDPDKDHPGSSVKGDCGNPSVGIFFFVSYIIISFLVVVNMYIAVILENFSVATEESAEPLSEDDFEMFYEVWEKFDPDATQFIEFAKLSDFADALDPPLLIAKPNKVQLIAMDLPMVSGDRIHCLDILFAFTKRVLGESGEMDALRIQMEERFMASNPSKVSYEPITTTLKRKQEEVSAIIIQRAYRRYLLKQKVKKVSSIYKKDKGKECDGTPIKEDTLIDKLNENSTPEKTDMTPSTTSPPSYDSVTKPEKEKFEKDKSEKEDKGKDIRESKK", "assay": "Binding affinity to human recombinant Nav1.2 by radioligand binding assay"}, "[23]": {"species": "Homo sapiens", "assay": "Selectivity ratio of Kd for binding affinity to human recombinant Nav1.3 by radioligand binding assay to Kd for binding affinity to human recombinant Nav1.7 by radioligand binding assay"}, "[24]": {"species": "Homo sapiens", "assay": "Selectivity ratio of Kd for binding affinity to human recombinant Nav1.5 by radioligand binding assay to Kd for binding affinity to human recombinant Nav1.7 by radioligand binding assay"}, "[25]": {"assay": "Ratio of unbound plasma concentration in mouse model of formalin-induced pain to Kd for binding affinity to mouse Nav1.7 by radioligand binding assay", "assay_type": "ADME", "conditions": "in vivo"}, "[26]": {"species": "Homo sapiens", "assay": "Selectivity index, ratio of IC50 for inhibition of human Nav1.5 expressed in HEK293 cells by electrophysiology assay to IC50 for inhibition of human Nav1.7 expressed in HEK293 cells by electrophysiology assay", "assay_type": "cell-based"}, "[27]": {"species": "Homo sapiens", "assay": "Selectivity index, ratio of IC50 for inhibition of human Nav1.4 expressed in HEK293 cells by electrophysiology assay to IC50 for inhibition of human Nav1.7 expressed in HEK293 cells by electrophysiology assay", "assay_type": "cell-based"}, "[28]": {"molecular_target": "T3, Sodium channel protein type 8 subunit alpha", "assay": "Inhibition of human Nav1.6 expressed in HEK293 cells by electrophysiology assay", "assay_type": "cell-based"}, "[29]": {"molecular_target": "T4, Sodium channel protein type 5 subunit alpha", "assay": "Inhibition of human Nav1.5 expressed in HEK293 cells by electrophysiology assay", "assay_type": "cell-based"}, "[30]": {"molecular_target": "T1, Sodium channel protein type 1 subunit alpha", "assay": "Inhibition of human Nav1.1 expressed in HEK293 cells by electrophysiology assay", "assay_type": "cell-based"}, "[31]": {"molecular_target": "T2, Sodium channel protein type 4 subunit alpha", "assay": "Inhibition of human Nav1.4 expressed in HEK293 cells by electrophysiology assay", "assay_type": "cell-based"}, "[32]": {"test_system": "Rattus norvegicus", "assay": "Analgesic activity in it dosed rat model of formalin-induced pain", "assay_type": "functional"}, "[33]": {"test_system": "Rattus norvegicus", "assay": "Analgesic activity in po dosed rat model of pain by Hargreaves test", "assay_type": "functional"}, "[34]": {"species": "Homo sapiens", "assay": "Selectivity index, ratio of IC50 for inhibition of human Nav1.6 expressed in HEK293 cells by electrophysiology assay to IC50 for inhibition of human Nav1.7 expressed in HEK293 cells by electrophysiology assay", "assay_type": "cell-based"}, "[35]": {"species": "Homo sapiens", "assay": "Selectivity index, ratio of IC50 for inhibition of human Nav1.2 expressed in HEK293 cells by electrophysiology assay to IC50 for inhibition of human Nav1.7 expressed in HEK293 cells by electrophysiology assay", "assay_type": "cell-based"}, "[36]": {"species": "Homo sapiens", "assay": "Selectivity index, ratio of IC50 for inhibition of human Nav1.1 expressed in HEK293 cells by electrophysiology assay to IC50 for inhibition of human Nav1.7 expressed in HEK293 cells by electrophysiology assay", "assay_type": "cell-based"}, "[37]": {"test_system": "Rattus norvegicus", "assay": "Analgesic activity in it dosed rat model of pain by hot plate test", "assay_type": "functional"}, "[38]": {"molecular_target": "Sodium channel protein type 9 subunit alpha (Homo sapiens, UniProt Q15858)", "assay": "Inhibition of human Nav1.7 expressed in HEK293 cells by electrophysiology assay", "assay_type": "cell-based"}, "[39]": {"test_system": "Rattus norvegicus", "assay": "Analgesic activity in it dosed rat model of pain by tail flick test", "assay_type": "functional"}, "[40]": {"molecular_target": "T5, Sodium channel protein type 2 subunit alpha", "assay": "Inhibition of human Nav1.2 expressed in HEK293 cells by electrophysiology assay", "assay_type": "cell-based"}}}
{"smiles": "CS(=O)(=O)NC(=O)c1cc(C2CC2)c(OCC2CCN(Cc3cc(C(F)(F)F)ccc3Cl)CC2)cc1F", "values": [{"measurement": "Kd", "setting": "[1]", "result": 13000, "unit": "nM"}, {"measurement": "Kd", "setting": "[2]", "result": 140, "unit": "nM"}, {"measurement": "Kd", "setting": "[3]", "result": 180, "unit": "nM"}, {"measurement": "Ratio", "setting": "[4]", "result": 0.6}, {"measurement": "concentration", "setting": "[5]", "result": 10.5, "unit": "µM"}, {"measurement": "Ratio Ki", "setting": "[6]", "result": 18}, {"measurement": "Kd", "setting": "[7]", "result": 28, "unit": "nM"}, {"measurement": "Kd", "setting": "[8]", "result": 210, "unit": "nM"}, {"measurement": "Ratio", "setting": "[9]", "result": 7.5}, {"measurement": "Ratio", "setting": "[10]", "result": 12}, {"measurement": "Ratio Ki", "setting": "[11]", "result": 8}, {"measurement": "Ratio Ki", "setting": "[12]", "result": 60}, {"measurement": "Ratio", "setting": "[13]", "result": 15}, {"measurement": "Ratio", "setting": "[14]", "result": 10}, {"measurement": "concentration", "setting": "[15]", "result": 16.1, "unit": "µM"}, {"measurement": "Ratio", "setting": "[16]", "result": 10}, {"measurement": "Ratio Ki", "setting": "[17]", "result": 40}, {"measurement": "fraction unbound", "setting": "[18]", "result": 0.002}, {"measurement": "Kd", "setting": "[19]", "result": 2.1, "unit": "nM"}, {"measurement": "concentration", "setting": "[20]", "result": 10.5, "unit": "µM"}, {"measurement": "Kd", "setting": "[21]", "result": 370, "unit": "nM"}, {"measurement": "Kd", "setting": "[22]", "result": 64, "unit": "nM"}, {"measurement": "Ratio Ki", "setting": "[23]", "result": 51}, {"measurement": "Ratio Ki", "setting": "[24]", "result": 100}, {"measurement": "Ratio", "setting": "[25]", "result": 5.5}]}
{"smiles": "CSCC[C@@H]1NC(=O)CNC(=O)[C@H](CCC(=O)O)NC(=O)[C@@H]2CSSC[C@H](NC(=O)[C@H](Cc3ccc(O)cc3)NC(=O)[C@H](Cc3ccc(O)cc3)NC(=O)[C@@H]3CCCN3C(=O)CN)C(=O)N[C@@H](CCC(N)=O)C(=O)N[C@@H](CCCCN)C(=O)N[C@@H](Cc3c[nH]c4ccccc34)C(=O)N[C@@H](CCSC)C(=O)N[C@@H](CCC(N)=O)C(=O)N[C@@H]([C@@H](C)O)C(=O)N[C@H]3CSSC[C@H](NC(=O)[C@H](C(C)C)NC1=O)C(=O)N[C@@H](CCCNC(=N)N)C(=O)N[C@@H](CC(C)C)C(=O)N[C@@H](Cc1c[nH]c4ccccc14)C(=O)N[C@H](C(=O)N[C@@H](CCCCN)C(=O)N[C@@H](CCCCN)C(=O)N[C@@H](CCCCN)C(=O)N[C@@H](CC(C)C)C(=O)N[C@@H](CC(C)C)C(=O)O)CSSC[C@H](NC(=O)[C@H](CCCCN)NC(=O)[C@H](CCCNC(=N)N)NC(=O)[C@H](CCC(=O)O)NC(=O)[C@H](CO)NC(=O)[C@H](CC(=O)O)NC3=O)C(=O)N2", "values": [{"measurement": "Ratio IC50", "setting": "[26]", "result": "> 1000"}, {"measurement": "Ratio IC50", "setting": "[27]", "result": 530}, {"measurement": "IC50", "setting": "[28]", "result": 1000, "unit": "nM"}, {"measurement": "IC50", "setting": "[29]", "result": "> 10000", "unit": "nM"}, {"measurement": "IC50", "setting": "[30]", "result": 10000, "unit": "nM"}, {"measurement": "IC50", "setting": "[31]", "result": 5300, "unit": "nM"}, {"measurement": "ED", "setting": "[32]", "result": "1 to 5", "unit": "µg"}, {"measurement": "ED", "setting": "[33]", "result": 1.4, "unit": "mg"}, {"measurement": "Ratio IC50", "setting": "[34]", "result": 100}, {"measurement": "Ratio IC50", "setting": "[35]", "result": 160}, {"measurement": "Ratio IC50", "setting": "[36]", "result": 1000}, {"measurement": "ED", "setting": "[37]", "result": "0.3 to 7.5", "unit": "µg"}, {"measurement": "IC50", "setting": "[38]", "result": 10, "unit": "nM"}, {"measurement": "ED", "setting": "[39]", "result": "0.3 to 7.5", "unit": "µg"}, {"measurement": "IC50", "setting": "[40]", "result": 1600, "unit": "nM"}]}
